One series deals with NIH/3T3 fibroblast cells. The following applies: concentrations 0.05% (w/w); cited from earlier work.
Series [1] relates to human aortic smooth muscle cells. Kind of series: Cytotoxic effects of photoinitiator concentrations, MTS assay. It is filed as cell-based. The following applies: no UV, 3 days. As for the experimental part:
(§1) Human aortic smooth muscle cells (HASMC) were cultured in complete medium consisting of Dulbecco's modified Eagle medium supplemented with 10% fetal bovine serum and 1% penicillin-streptomycin (Invitrogen, Carlsbad, Calif.). Upon 80-90% confluency, the cells were passaged or used for experiments. For all experiments, the cells were seeded in 24-well plates (Corning, Corning, N.Y.) at a density of 7000 cells per well. Following seeding, the cells were incubated at 37 °C and 5% CO2 in a humid environment for 2 days to allow cellular attachment and growth. After 2 days, the HASMCs were exposed to varying concentrations of the photoinitiator Irgacure 2959 (Ciba Specialty Chemicals), and/or UV exposure.
To evaluate the cytotoxic effects of photoinitiator concentrations on HASMCs, the cells were seeded and cultured as described earlier. Irgacure 2959 was directly dissolved in complete media to obtain final concentrations of 0.01%, 0.02%, 0.04%, 0.08%, and 0.16% (w/v). These photoinitiator concentrations were well within the range required for photopolymerization in a short period of time. […] These solutions were then sterilized using 0.2-μm syringe filters before they were added to the HASMCs. The control wells consisted of cells incubated with photoinitiator-free complete media. After the addition of the photoinitiator, the cells were incubated for 3 days, and then cell survival was determined using MTS assays. The cell survival for the controls was determined to be 1±0.09. […] Upon increasing the photoinitiator concentrations above 0.02% (w/v), a statistically significant decrease was noticed in the relative cell survival.
(§2) After the experiments, the cell survival was quantified using the MTS assay (CellTiter 961 Aqueous One Solution Cell Proliferation Assay, Promega) following the manufacturer's instructions. The cells were incubated with the MTS reagent for 4 h, after which 200 μL of the solution was transferred to 96-well plates, and absorbance was read at 490 nm using a microplate reader (VMax, Molecular Devices). Relative cell survival was obtained by dividing the absorbance reading of a cell sample by the mean absorbance value of the control.
On the technique in general: Formazan colour is commonly taken as a measure of viable cells.

For series [2] the test system is unchanged. Kind of series: Combined effects of photoinitiator and UV exposure on cell survival, MTS assay. It is filed as cell-based. The following applies: 3 days. As for the experimental part: as §1
The cellular damage due to the combined effects of photoinitiator and UV exposure was evaluated. Briefly, the HASMCs were seeded onto 24-well plates and allowed to grow for 2 days. Irgacure 2959 solutions with final concentrations of 0.01%, 0.015%, 0.04%, and 0.08% (w/v) in complete media were prepared. After adding these solutions, cells were incubated for 30 min to allow for the mixing of the photoinitiator. The well plates were then exposed to 1, 3, and 5 min of UV light. Wells containing cells not exposed to either UV light or photoinitiator solution served as controls for this experiment. Cell samples were incubated for 3 days before analyzing the cell survival. […] The cell survival for the controls was determined to be 1±0.09.
as §2

Series [3] has the same test system. The series can be described thus: Ascorbic acid scavenging of free radicals to increase cell survival, MTS assay. It is filed as cell-based. The following applies: 50 mg/L ascorbic acid, 0.15% (w/v) Irgacure 2959, 5 min UV, 3 days. How it is done:
The efficiency of the antioxidant, ascorbic acid, was evaluated in scavenging the free radicals in an effort to increase cell survival. HASMCs were exposed to 0.15% (w/v) solution of Irgacure 2959 in complete media supplemented with varying concentrations of ascorbic acid (0-200 mg/L). After incubating for 30 min, the cells were exposed to 5 min of UV light, and cell survival was quantified after 3 days. To evaluate the effect of added antioxidants on the gelation time, the gelation times (i.e., the time required for the materials to form a gel) were determined using three methods on 96-well plates. […] Then, the solution was monitored at that this specific wavelength AQ3 (610 nm) over a time course. The result was graphed as function of time, and the gelation time was defined as the time that had the highest changes in the absorbance intensities.
as §2

As to `CC(C)(O)C(=O)c1ccc(OCCO)cc1` [Irgacure 2959, 2-hydroxy-1-[4-(2-hydroxyethoxy)phenyl]-2-methyl-1-propanone], the fibroblast survival entry in the series with NIH/3T3 fibroblast cells is recorded as “does not affect fibroblast survival”. Further, the relative cell survival in series [1] (0.01% (w/v)) is on record as 1.03±0.10; in series [1] (0.02% (w/v)) it was 0.85±0.09; in series [1] (0.16% (w/v)), 0.25±0.01; in series [2] (0.01% (w/v), 1, 3 and 5 min UV) it was “did not show any statistically significant decrease in relative cell survival”; in series [2] (0.015% (w/v), 1, 3 and 5 min UV) it was “did not show any statistically significant decrease in relative cell survival”; in series [2] (0.04% (w/v), 1 min UV), 0.76±0.05. Moreover, the relative cell survival in series [2] (0.04% (w/v), 3 min UV) amounted to 0.74±0.04; in series [2] (0.04% (w/v), 5 min UV), 0.67±0.05. Besides, the cell survival result in series [1] (below 0.02% (w/v)) was “no significant decrease in cell survival”.
As for `O=C1O[C@H]([C@@H](O)CO)C(O)=C1O` [ascorbic acid], the “relative cell survival compared to samples without ascorbic acid” value in series [3] is “significantly improve the relative cell survival rates”.

The values are drawn from patent US20110171309A1, “Compositions and Methods for Composite Nanoparticle Hydrogels” (Board of Regents, The University of Texas System, priority 2008, published 2011).
